Data as given in patent publication US20100227859A1, “TRICYCLIC COMPOUNDS AS MATRIX METALLOPROTEINASE INHIBITORS” (priority 2007, published 2010).

Target: purified human MMP-12 enzyme (Homo sapiens, UniProt P39900)
Experiment: MMP-12 FRET assay
Format: biochemical
Settings: substrate 20 μM, room temperature
Procedure, shortened: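 Enzyme pre-incubated 30 min at room temperature with compound in 50 mM HEPES pH 7.4, 100 mM NaCl, 5 mM CaCl2, 0.005% Brij-35, 10% DMSO final. Reaction started with 20 μM MCA-Pro-Leu-Gly-Leu-Dpa(DNP)-Ala-Arg, and initial cleavage rate read over 30 min (λex 325, λem 395 nm). IC50 from slope-factor inhibition fit.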

Sequence of purified human MMP-12 enzyme (P39900 106-470): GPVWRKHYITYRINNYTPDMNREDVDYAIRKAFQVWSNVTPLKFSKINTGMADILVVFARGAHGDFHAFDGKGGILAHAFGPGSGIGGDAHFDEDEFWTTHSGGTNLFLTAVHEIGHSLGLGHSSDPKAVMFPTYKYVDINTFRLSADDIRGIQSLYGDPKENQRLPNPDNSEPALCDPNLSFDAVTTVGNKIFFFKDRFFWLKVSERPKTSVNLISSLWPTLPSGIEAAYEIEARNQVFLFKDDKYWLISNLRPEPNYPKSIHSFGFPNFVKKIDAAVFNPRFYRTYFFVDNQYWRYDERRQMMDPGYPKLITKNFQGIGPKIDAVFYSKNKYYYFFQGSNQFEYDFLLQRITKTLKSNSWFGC

IC50 | Structure (SMILES)
65 nM | CC(C)[C@H](NS(=O)(=O)c1ccc2c(c1)sc1ccc(-c3cnn(Cc4ccccc4)c3)cc12)C(=O)O [Compound 44, (S)-2-(8-(1-benzyl-1H-pyrazol-4-yl)dibenzo[b,d]thiophene-3-sulfonamido)-3-methylbutanoic acid]
< 1.5 nM | CC(C)[C@H](NS(=O)(=O)c1ccc2c(c1)oc1cc(-c3cccs3)ccc12)C(=O)O [Compound 81, (S)-3-methyl-2-(7-(thiophen-2-yl)dibenzo[b,d]furan-3-sulfonamido)butanoic acid]
< 1.5 nM | CC(C)[C@H](NS(=O)(=O)c1ccc2c(c1)oc1ccc(-c3cccnc3)cc12)C(=O)O [Compound 3, (S)-3-methyl-2-(8-(pyridin-3-yl)dibenzo[b,d]furan-3-sulfonamido)butanoic acid]
33 nM | CC(C)[C@H](NS(=O)(=O)c1ccc2c(c1)sc1ccc(-c3ccc(Cl)nc3)cc12)C(=O)O [Compound 63, (S)-2-(8-(6-chloropyridin-3-yl)dibenzo[b,d]thiophene-3-sulfonamido)-3-methylbutanoic acid]
44 nM | Cc1csc(-c2ccc3sc4cc(S(=O)(=O)N[C@H](C(=O)O)C(C)C)ccc4c3c2)c1 [Compound 62, (S)-3-methyl-2-(8-(4-methylthiophen-2-yl)dibenzo[b,d]thiophene-3-sulfonamido)butanoic acid]
< 1.5 nM | CC(C)[C@H](NS(=O)(=O)c1ccc2c(c1)oc1cc(-c3cnc(Cl)s3)ccc12)C(=O)O [Compound 181, (S)-2-(7-(2-chlorothiazol-5-yl)dibenzo[b,d]furan-3-sulfonamido)-3-methylbutanoic acid]
5.7 nM | CC(C)[C@H](NS(=O)(=O)c1ccc2c(c1)oc1ccc(-c3ccc(C(C)N(C)C)s3)cc12)C(=O)O (stereo partly drawn) [Compound 50, (S)-2-(8-(5-(1-(dimethylamino)ethyl)thiophen-2-yl)dibenzo[b,d]furan-3-sulfonamido)-3-methylbutanoic acid]
3.7 nM | CC(C)[C@H](NS(=O)(=O)c1ccc2c(c1)oc1ccc(-c3ncc(Cn4cccn4)s3)cc12)C(=O)O [Compound 214, (S)-2-(8-(5-((1H-pyrazol-1-yl)methyl)thiazol-2-yl)dibenzo[b,d]furan-3-sulfonamido)-3-methylbutanoic acid]
< 1.5 nM | CC(C)[C@H](NS(=O)(=O)c1ccc2c(c1)oc1ccc(-c3noc(-c4cccs4)n3)cc12)C(=O)O [Compound 264, (S)-3-methyl-2-(8-(5-(thiophen-2-yl)-1,2,4-oxadiazol-3-yl)dibenzo[b,d]furan-3-sulfonamido)butanoic acid]
< 1.5 nM | CC(C)[C@H](NS(=O)(=O)c1ccc2c(c1)oc1ccc(-c3csc(Cl)n3)cc12)C(=O)O [Compound 180, (S)-2-(8-(2-chlorothiazol-4-yl)dibenzo[b,d]furan-3-sulfonamido)-3-methylbutanoic acid]
11 nM | Cc1nc(C)c(-c2ccc3c(c2)oc2ccc(S(=O)(=O)N[C@@H](C(=O)O)C(C)C)cc23)s1 [Compound 169, (R)-2-(7-(2,4-dimethylthiazol-5-yl)dibenzo[b,d]furan-2-sulfonamido)-3-methylbutanoic acid]
< 1.5 nM | CC(C)[C@H](NS(=O)(=O)c1ccc2c(c1)oc1ccc(-c3csc4ccccc34)cc12)C(=O)O [Compound 12, (S)-2-(8-(benzo[b]thiophen-3-yl)dibenzo[b,d]furan-3-sulfonamido)-3-methylbutanoic acid]
4.9 nM | CC(C)[C@H](NS(=O)(=O)c1ccc2c(c1)oc1ccc(-c3nc4c(F)c(F)c(F)cc4s3)cc12)C(=O)O [Compound 222, (S)-3-methyl-2-(8-(4,5,6-trifluorobenzo[d]thiazol-2-yl)dibenzo[b,d]furan-3-sulfonamido)butanoic acid]
< 1.5 nM | Cc1cnc(-c2ccc3c(c2)oc2cc(S(=O)(=O)N[C@H](C(=O)O)C(C)C)ccc23)s1 [Compound 234, (S)-3-methyl-2-(7-(5-methylthiazol-2-yl)dibenzo[b,d]furan-3-sulfonamido)butanoic acid]
61 nM | CC(C)C[C@H](NS(=O)(=O)c1ccc2oc3cc(-c4noc(C(C)(C)C)n4)ccc3c2c1)C(=O)O [Compound 279, (S)-2-(7-(5-tert-butyl-1,2,4-oxadiazol-3-yl)dibenzo[b,d]furan-2-sulfonamido)-4-methylpentanoic acid]
4.8 nM | CC(C)[C@H](NS(=O)(=O)c1ccc2c(c1)sc1ccc(-c3ccoc3)cc12)C(=O)O [Compound 25, (S)-2-(8-(furan-3-yl)dibenzo[b,d]thiophene-3-sulfonamido)-3-methylbutanoic acid]
< 1.5 nM | CC(C)[C@H](NS(=O)(=O)c1ccc2c(c1)oc1ccc(-c3cnn(C)c3)cc12)C(=O)O [Compound 18, (S)-3-methyl-2-(8-(1-methyl-1H-pyrazol-4-yl)dibenzo[b,d]furan-3-sulfonamido)butanoic acid]
15 nM | CCC(C)Cn1cc(-c2ccc3oc4cc(S(=O)(=O)N[C@H](C(=O)O)C(C)C)ccc4c3c2)cn1 (stereo partly drawn) [Compound 157, (2S)-3-methyl-2-(8-(1-(2-methylbutyl)-1H-pyrazol-4-yl)dibenzo[b,d]furan-3-sulfonamido)butanoic acid]

IC50 | Structure (SMILES)
2.5 nM | Cc1cc(-c2ccc3oc4cc(S(=O)(=O)N[C@H](C(=O)O)C(C)C)ccc4c3c2)c(C)s1 [Compound 89, (S)-2-(8-(2,5-dimethylthiophen-3-yl)dibenzo[b,d]furan-3-sulfonamido)-3-methylbutanoic acid]
131 nM | Cc1nc(CC(C)C)sc1-c1ccc2c(c1)oc1ccc(S(=O)(=O)N[C@H](C(=O)O)C(C)C)cc12 [Compound 247, (S)-2-(7-(2-isobutyl-4-methylthiazol-5-yl)dibenzo[b,d]furan-2-sulfonamido)-3-methylbutanoic acid]
1.1 nM | CC(C)[C@H](NS(=O)(=O)c1ccc2c(c1)oc1cc(-c3cc4ccccc4o3)ccc12)C(=O)O [Compound 143, (S)-2-(7-(benzofuran-2-yl)dibenzo[b,d]furan-3-sulfonamido)-3-methylbutanoic acid]
1.6 nM | Cc1nc(-c2ccc3oc4cc(S(=O)(=O)N[C@H](C(=O)O)C(C)C)ccc4c3c2)sc1C [Compound 305, (S)-2-(8-(4,5-dimethylthiazol-2-yl)dibenzo[b,d]furan-3-sulfonamido)-3-methylbutanoic acid]
210 nM | CC(C)[C@H](NS(=O)(=O)c1ccc2c(c1)oc1ccc(C(=O)O)cc12)C(=O)O [Compound 273, (S)-7-(N-(1-carboxy-2-methylpropyl)sulfamoyl)dibenzo[b,d]furan-2-carboxylic acid]
< 1.5 nM | CC(C)[C@H](NS(=O)(=O)c1ccc2c(c1)oc1cc(-c3sc(Cl)c(Cl)c3Cl)ccc12)C(=O)O [Compound 86, (S)-3-methyl-2-(7-(3,4,5-trichlorothiophen-2-yl)dibenzo[b,d]furan-3-sulfonamido)butanoic acid]
< 1.5 nM | CC(C)[C@H](NS(=O)(=O)c1ccc2c(c1)oc1ccc(-c3nc(C(F)(F)F)c(Cl)s3)cc12)C(=O)O [Compound 200, (S)-2-(8-(5-chloro-4-(trifluoromethyl)thiazol-2-yl)dibenzo[b,d]furan-3-sulfonamido)-3-methylbutanoic acid]
1.5 nM | CC(C)[C@H](NS(=O)(=O)c1ccc2c(c1)sc1cc(-c3ccc(Cl)s3)ccc12)C(=O)O [Compound 304, (S)-2-(7-(5-chlorothiophen-2-yl)dibenzo[b,d]thiophene-3-sulfonamido)-3-methylbutanoic acid]
< 1.5 nM | CC(C)Cc1ncc(-c2ccc3oc4cc(S(=O)(=O)N[C@H](C(=O)O)C(C)C)ccc4c3c2)s1 [Compound 248, (S)-2-(8-(2-isobutylthiazol-5-yl)dibenzo[b,d]furan-3-sulfonamido)-3-methylbutanoic acid]
< 1.5 nM | CC(C)[C@H](NS(=O)(=O)c1ccc2c(c1)oc1ccc(-c3noc(-c4ccc(F)cc4F)n3)cc12)C(=O)O [Compound 269, (S)-2-(8-(5-(2,4-difluorophenyl)-1,2,4-oxadiazol-3-yl)dibenzo[b,d]furan-3-sulfonamido)-3-methylbutanoic acid]
3.9 nM | CCCn1cc(-c2ccc3c(c2)oc2ccc(S(=O)(=O)N[C@@H](C(=O)O)C(C)C)cc23)cn1 [Compound 171, (R)-3-methyl-2-(7-(1-propyl-1H-pyrazol-4-yl)dibenzo[b,d]furan-2-sulfonamido)butanoic acid]
5.1 nM | CC(C)[C@@H](NS(=O)(=O)c1ccc2oc3cc(-c4ccc(Cl)nc4)ccc3c2c1)C(=O)O [Compound 101, (R)-2-(7-(6-chloropyridin-3-yl)dibenzo[b,d]furan-2-sulfonamido)-3-methylbutanoic acid]
2.8 nM | CC(C)c1nc(-c2ccc3c(c2)oc2ccc(S(=O)(=O)N[C@@H](C(=O)O)C(C)C)cc23)no1 [Compound 138, (R)-2-(7-(5-isopropyl-1,2,4-oxadiazol-3-yl)dibenzo[b,d]furan-2-sulfonamido)-3-methylbutanoic acid]
118 nM | CC(C)[C@H](NS(=O)(=O)c1ccc2c(c1)oc1ccc(-c3occc3CN(C)C)cc12)C(=O)O [Compound 48, (S)-2-(8-(3-((dimethylamino)methyl)furan-2-yl)dibenzo[b,d]furan-3-sulfonamido)-3-methylbutanoic acid]
39 nM | CCN(C#Cc1ccc2oc3cc(S(=O)(=O)N[C@H](C(=O)O)C(C)C)ccc3c2c1)CC [Compound 39, (S)-2-(8-((diethylamino)ethynyl)dibenzo[b,d]furan-3-sulfonamido)-3-methylbutanoic acid]
1.5 nM | CCCc1ccc(-c2ccc3c(c2)oc2ccc(S(=O)(=O)N[C@@H](C(=O)O)C(C)C)cc23)s1 [Compound 243, (R)-3-methyl-2-(7-(5-propylthiophen-2-yl)dibenzo[b,d]furan-2-sulfonamido)butanoic acid]
7.4 nM | Cc1ccc2nc(-c3ccc4c(c3)oc3ccc(S(=O)(=O)N[C@@H](C(=O)O)C(C)C)cc34)sc2c1 [Compound 298, (R)-3-methyl-2-(7-(6-methylbenzo[d]thiazol-2-yl)dibenzo[b,d]furan-2-sulfonamido)butanoic acid]
